Here are results for 7 compounds from patent publication US12545685B2 (Daiichi Sankyo Company, Limited, priority 2011, dated 2026).

pIC50: −log10 of the molar value.

T1 sequence (Q00987 25-108 L33E): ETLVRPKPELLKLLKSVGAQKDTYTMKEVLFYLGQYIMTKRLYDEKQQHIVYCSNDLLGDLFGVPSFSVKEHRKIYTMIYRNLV

This test has as its target T1, Mdm2/p53 binding (GST-Mdm2 / His-p53) (Homo sapiens, UniProt Q00987, L33E).
T1 construct: Mdm2 partial protein having Mdm2 amino acids at positions 25 to 108
Put plainly: Mdm2/p53 binding assay (HTRF, His-p53 and GST-Mdm2). Conditions: His-p53 (aa 1-132) and GST-Mdm2 (aa 25-108, L33E) 6.25 nM each; 25°C, 1 hour; values given as ranges. The gist of the method:
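Binding was detected by HTRF (ex 320 nm, em 620/665 nm) after 1 h at 25 °C, using Eu-cryptate anti-GST and XL665 anti-His antibodies. The protein pair was GST-Mdm2 (residues 25–108, L33E) with His-p53 (residues 1–132), each 6.25 nM in the protein dilution. T/C used no-compound control and no-p53 background, and IC50 came from sigmoid fitting.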
Compound `Cn1cncc1CNC(=O)[C@@H]1NC2(CCC(C)(C)CC2)[C@@]2(C(=O)Nc3cc(Cl)ccc32)[C@H]1c1ccnc(Cl)c1F` [Example 171, (3′R, 4′S, S′R)-6″-chloro-4′-(2-chloro-3-fluoropyridin-4-yl)-4,4-dimethyl-N-[(1-methyl-1H-imidazol-5-yl)methyl]-2″-oxo-1″,2″-dihydrodispiro[cyclohexane-1,2″-pyrrolidine-3′,3″-indole]-5′-carboxamide] had a pIC50 of 7.00 to 7.30.
In the case of `O=C(N[C@@H]1CC[C@@H](CO)OC1)[C@@H]1NC2(CC(CF)(CF)C2)[C@@]2(C(=O)Nc3cc(Cl)ccc32)[C@H]1c1ccc(F)c(Cl)c1F` [Example 172, (3′R,4′S,5′R)-6″-chloro-4′-(3-chloro-2,4-difluorophenyl)-3,3-bis(fluoromethyl)-N-[(3R,6S)-6-(hydroxymethyl)tetrahydro-2H-pyran-3-yl]-2′-oxo-1″,2″-dihydrodispiro[cyclobutane-1,2′-pyrrolidine-3′,3″-indole]-5′-carboxamide] it was 7.30 to 9.00.
`COC(=O)[C@@H]1CC[C@@H](NC(=O)[C@@H]2NC3(CCC(C)(C)CC3)[C@@]3(C(=O)Nc4cc(Cl)ccc43)[C@H]2c2ccnc(Cl)c2F)CO1` [Example 173, Methyl (2S,5R)-5-({[(3′S,4′S,5′R)-6″-chloro-4′-(2-chloro-3-fluoropyridin-4-yl)-4,4-dimethyl-2″-oxo-1″,2″-dihydrodispiro[cyclohexane-1,2′-pyrrolidine-3′,3′-indole]-5′-yl]carbonyl}amino)tetrahydro-2H-pyran-2-carboxylate] showed a pIC50 of 7.00 to 7.30.
The value for `O=C(N[C@@H]1CC[C@@H](CO)OC1)[C@@H]1NC2(CC(CF)(CF)C2)[C@@]2(C(=O)Nc3cc(Cl)ccc32)[C@H]1c1cccc(Cl)c1` [Example 175, (3′R, 4′R, 5′R)-6″-chloro-4′-(3-chlorophenyl)-3,3-bis(fluoromethyl)-N-[(3R,6S)-6-(hydroxymethyl)tetrahydro-2H-pyran-3-yl]-2″-oxo-1″,2″-dihydrodispiro[cyclobutane-1,2′-pyrrolidine-3′,3″-indole]-5′-carboxamide] was 7.00 to 7.30; that for `O=C(N[C@@H]1CC[C@@H](CO)OC1)[C@@H]1NC2(CC(CF)(CF)C2)[C@@]2(C(=O)Nc3cc(Cl)ccc32)[C@H]1c1cc(F)cc(Cl)c1F` [Example 176, (3′R, 4′S,5′R)-6″-chloro-4′-(3-chloro-2,5-difluorophenyl)-3,3-bis(fluoromethyl)-N-[(3R,6S)-6-(hydroxymethyl)tetrahydro-2H-pyran-3-yl]-2″-oxo-1″,2″-dihydrodispiro[cyclobutane-1,2′-pyrrolidine-3′,3″-indole]-5′-carboxamide] was 7.30 to 9.00.
The value for `CC1(C)CCC2(CC1)N[C@@H](C(=O)NC1CCN(c3nnn[nH]3)CC1)[C@H](c1ccnc(Cl)c1F)[C@]21C(=O)Nc2cc(Cl)ccc21` [Example 178, (3′R, 4′S,5′8)-6″-chloro-4′-(2-chloro-3-fluoropyridin-4-yl)-4,4-dimethyl-2″-oxo-N-[1-(1H-tetrazol-5-yl)piperidin-4-yl]-1″,2″-dihydrodispiro[cyclohexane-1,2′-pyrrolidine-3′,3″-indole]-5′-carboxamide] was 7.30 to 9.00.
On to `CC1(C)CCC2(CC1)N[C@@H](C(=O)N[C@@H]1CC[C@@H](C(N)=O)OC1)[C@H](c1cccc(Cl)c1F)[C@]21C(=O)Nc2cc(Cl)ccc21` [Example 181, (3′R, 4′S,5′R)-N-[(3R, 6S)-6-carbamoyltetrahydro-2H-pyran-3-yl]-6″-chloro-4′-(3-chloro-2-fluorophenyl)-4,4-dimethyl-2″-oxo-1″,2″-dihydrodispiro[cyclohexane-1,2′-pyrrolidine-3′,3′-indole]-5′-carboxamide], for which the pIC50 is 7.30 to 9.00.
